Eleven molecules from US10081628B2, “Apoptosis-inducing agents for the treatment of cancer and immune and autoimmune diseases” (AbbVie Inc., priority 2013, dated 2018) can be followed below.

In general, Ki refers to a measure of affinity in units of concentration, obtained from inhibition or displacement. In general, EC50 refers to the concentration giving half of the maximal effect.

Read-outs that look alike come from different tables or passages of the source.

One assay deals with GST-Bcl-2 (Homo sapiens, UniProt P10415). As to the kind of experiment: TR-FRET Bcl-2 binding assay (F-Bak peptide probe). The settings on record: GST-Bcl-2 1 nM, F-Bak peptide probe 100 nM, Tb-anti-GST 1 nM; Wang's equation; '<' = below limit of detection. On the procedure: Determination of the utility of compounds of this invention as binders to and inhibitors of anti-apoptotic Bcl-2 proteins was performed using the Time Resolved-Fluorescence Resonance Energy Transfer (TR-FRET) Assay. Tb-anti-GST antibody was purchased from Invitrogen (Catalog No. PV4216).
Sequence of GST-Bcl-2 (P10415 whole entry): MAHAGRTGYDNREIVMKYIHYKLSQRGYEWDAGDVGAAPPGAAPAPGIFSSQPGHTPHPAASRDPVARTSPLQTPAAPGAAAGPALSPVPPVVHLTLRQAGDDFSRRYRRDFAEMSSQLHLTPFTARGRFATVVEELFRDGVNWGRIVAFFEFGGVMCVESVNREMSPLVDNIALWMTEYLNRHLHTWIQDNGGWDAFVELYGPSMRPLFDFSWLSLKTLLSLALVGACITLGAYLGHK
Representative compounds were serially diluted in dimethyl sulfoxide (DMSO) starting at 50 μM (2× starting concentration; 10% DMSO) and 10 μL were transferred into a 384-well plate. The samples are then mixed on a shaker for 1 minute and incubated for an additional 3 hours at room temperature. For each assay, the probe/antibody and protein/probe/antibody were included on each assay plate as negative and positive controls, respectively. Fluorescence was measured on the Envision (Perkin Elmer) using a 340/35 nm excitation filter and 520/525 (F-Bak peptide) and 495/510 nm (Tb-labeled […] antibody) emission filters. Dissociation constants (Ki) are shown in TABLE 2 below and were determined using Wang's equation (Wang Z.-X., An Exact Mathematical Expression For Describing Competitive Binding Of Two Different Ligands To A Protein Molecule. FEBS Lett. 1995, 360:111-4).
The samples were then mixed on a shaker for 1 minute and incubated for an additional 3 hours at room temperature. For each assay, the probe/antibody and protein/probe/antibody were included on each assay plate as negative and positive controls, respectively. Fluorescence was measured on the Envision (Perkin Elmer) using a 340/35 nm excitation filter and 520/525 (F-Bak peptide) and 495/510 nm (Tb-labeled anti-Histidine antibody) emission filters.
Inhibition constants (Ki) for compounds were determined using Wang's equation (Wang Zx. An Exact Mathematical Expression For Describing Competitive Binding Of Two Different Ligands To A Protein Molecule. FEBS Lett. 1995, 360:111-4).
The inhibition constant (Ki) is the dissociation constant of an enzyme-inhibitor complex or a protein/small molecule complex, wherein the small molecule is inhibiting binding of one protein to another protein or peptide. So a large Ki value indicates a low binding affinity and a small Ki value indicates a high binding affinity. […] The compounds are therefore expected to have utility in treatment of diseases during which anti-apoptotic Bcl-2 protein is expressed. Biological Data
(In TR-FRET formats the signal depends on donor and acceptor labels being close together.)

For the next assay, the system named is RS4;11 cells. As to the kind of experiment: RS4;11 cell viability assay (CellTiter Glo). In kind it is cell-based. The settings on record: 10% human serum, 48 hours. From the text:
The acute lymphoblastic leukemia (ALL) cell line RS4;11 was used as the primary human cell line to assess the cellular activity of Bcl-2 selective agents in vitro and their efficacy in vivo. Previous studies have shown by BH3 profiling, a mitochondrial assay that classifies blocks in the intrinsic apoptotic pathway, that RS4;11 cells were highly dependant on BCL-2 for survival and sensitive to the Bcl-2 family member inhibitor ABT-737 (Blood, 2008, Vol. 111, 2300-2309).
RS4;11 cells were cultured in RPMI-1640 supplemented with 2 mM L-glutamine, 10% FBS, 1 mM sodium pyruvate, 2 mM HEPES, 1% penicillin/streptomycin (Invitrogen), 4.5 g/L glucose and maintained at 37 C containing 5% CO2. To test for the cellular activity of compounds in vitro, cells were treated at 50,000 cells per well in 96-well microtiter plates in the presence of 10% human serum for 48 hours in a humidified chamber with 5% CO2. Cell cytotoxicity EC50 values were assessed using CellTiter Glo (Promega) according to the manufacturer's recommendations. The EC50 values were determined as a percentage of viable cells following treatment compared to the untreated control cells.

In another assay the test system is lymphocytes. As to the kind of experiment: Lymphocyte reduction in C57BL/6 mice. The class given is in vivo. The settings on record: Mus musculus, ip. On the procedure: An experiment was performed to evaluate the effect of Bcl-2 selective/Bcl-xL sparing compounds on immune cells and platelets, as evaluated in C57Bl/6 mice. Mice were treated four days with compounds (doses of 30 mg/kg, administered by intraperitoneal injection every day) and cell numbers were measured with a Cell Dyn hematology analyzer 24 hours after the first and last doses. Exposure of the compound (area under the curve) was calculated by using time points of 1, 6, 10 and 24 hours after the last dose.

Setting [1] is: 30 mg/kg intraperitoneal every day for four days, 24 hours after the last dose, read-out: Lymphocyte reduction % inh. day 4.
The mark [2] stands for this setting: 30 mg/kg intraperitoneal every day, 24 hours after the first dose, read-out: Lymphocyte reduction % inh. day 1.

Take `CC1(C)CCC(CN2CCN(c3ccc(C(=O)NS(=O)(=O)c4ccc(NC[C@@H]5COCCO5)c([N+](=O)[O-])c4)c(Oc4cnc5[nH]ccc5c4)c3)CC2)=C(c2ccc(Cl)cc2)C1` [Example 1, 4-(4-{[2-(4-chlorophenyl)-4,4-dimethylcyclohex-1-en-1-yl]methyl}piperazin-1-yl)-N-[(4-{[(2R)-1,4-dioxan-2-ylmethyl]amino}-3-nitrophenyl)sulfonyl]-2-(1H-pyrrolo[2,3-b]pyridin-5-yloxy)benzamide]: at GST-Bcl-2, the Ki was < 0.1 nM. This molecule registered a half-maximal effective concentration (EC50) with RS4;11 cells of 5.3 nM. The inhibition at 30 mg/kg with lymphocytes (setting [1]) and in the assay with lymphocytes (setting [2]) was 41% each time.
Consider `C[C@@H](Nc1ccc(S(=O)(=O)NC(=O)c2ccc(N3CCN(CC4=C(c5ccc(Cl)cc5)CC(C)(C)CC4)CC3)cc2Oc2cnc3[nH]ccc3c2)cc1[N+](=O)[O-])C1CCOCC1` [Example 3, 4-(4-{[2-(4-chlorophenyl)-4,4-dimethylcyclohex-1-en-1-yl]methyl}piperazin-1-yl)-N-[(3-nitro-4-{[(1R)-1-(tetrahydro-2H-pyran-4-yl)ethyl]amino}phenyl)sulfonyl]-2-(1H-pyrrolo[2,3-b]pyridin-5-yloxy)benzamide], for which, at GST-Bcl-2, the Ki is < 0.1 nM. This molecule had an EC50 with RS4;11 cells of 150 nM. Further, the inhibition at 30 mg/kg in the assay on lymphocytes (setting [1]) and in the assay on lymphocytes (setting [2]) was < 15% in each case.
With `CC1(C)CCC(CN2CCN(c3ccc(C(=O)NS(=O)(=O)c4ccc(NC[C@H]5CC[C@@]6(CCCO6)CC5)c([N+](=O)[O-])c4)c(Oc4cnc5[nH]ccc5c4)c3)CC2)=C(c2ccc(Cl)cc2)C1` [Example 5, 4-(4-{[2-(4-chlorophenyl)-4,4-dimethylcyclohex-1-en-1-yl]methyl}piperazin-1-yl)-N-[(3-nitro-4-{[(5R,8R)-1-oxaspiro[4.5]dec-8-ylmethyl]amino}phenyl)sulfonyl]-2-(1H-pyrrolo[2,3-b]pyridin-5-yloxy)benzamide], the Ki at GST-Bcl-2 was < 0.1 nM. This molecule gave an EC50 in the assay with RS4;11 cells of 5.2 nM. For the same molecule, the inhibition at 30 mg/kg in the assay with lymphocytes (setting [1]) amounted to 45%; with lymphocytes (setting [2]), 47%.
In the case of `CC1(C)CCC(CN2CCN(c3ccc(C(=O)NS(=O)(=O)c4ccc(NCC5(O)CCOCC5)c([N+](=O)[O-])c4)c(Oc4cnc5[nH]ccc5c4)c3)CC2)=C(c2ccc(Cl)cc2)C1` [Example 6, 4-(4-{[2-(4-chlorophenyl)-4,4-dimethylcyclohex-1-en-1-yl]methyl}piperazin-1-yl)-N-[(4-{[(4-hydroxytetrahydro-2H-pyran-4-yl)methyl]amino}-3-nitrophenyl)sulfonyl]-2-(1H-pyrrolo[2,3-b]pyridin-5-yloxy)benzamide], the Ki on GST-Bcl-2 is < 0.1 nM. The molecule also came in with an EC50 with RS4;11 cells of 7.6 nM. Also, the inhibition at 30 mg/kg is 24% with lymphocytes (setting [1]) and < 15% in the assay on lymphocytes (setting [2]).
Regarding `CC1(C)CCC(CN2CCN(c3ccc(C(=O)NS(=O)(=O)c4ccc(NC[C@H]5COCCO5)c([N+](=O)[O-])c4)c(Oc4cnc5[nH]ccc5c4)c3)CC2)=C(c2ccc(Cl)cc2)C1` [Example 9, 4-(4-{[2-(4-chlorophenyl)-4,4-dimethylcyclohex-1-en-1-yl]methyl}piperazin-1-yl)-N-[(4-{[(2S)-1,4-dioxan-2-ylmethyl]amino}-3-nitrophenyl)sulfonyl]-2-(1H-pyrrolo[2,3-b]pyridin-5-yloxy)benzamide], the Ki on GST-Bcl-2 is < 0.1 nM. In the assay on RS4;11 cells, this molecule had an EC50 of 2.2 nM. For the same molecule, the inhibition at 30 mg/kg in the assay on lymphocytes (setting [1]) amounted to 58%; with lymphocytes (setting [2]), 69%.
In the same order, the values of `CC1(C)CCC(CN2CCN(c3ccc(C(=O)NS(=O)(=O)c4ccc(NCC5(CO)CCOCC5)c([N+](=O)[O-])c4)c(Oc4cnc5[nH]ccc5c4)c3)CC2)=C(c2ccc(Cl)cc2)C1` [Example 10, 4-(4-{[2-(4-chlorophenyl)-4,4-dimethylcyclohex-1-en-1-yl]methyl}piperazin-1-yl)-N-{[4-({[4-(hydroxymethyl)tetrahydro-2H-pyran-4-yl]methyl}amino)-3-nitrophenyl]sulfonyl}-2-(1H-pyrrolo[2,3-b]pyridin-5-yloxy)benzamide] are < 0.1 nM, 8.1 nM, < 15% and < 15%.
In the same order, the values of `CC(C)(O)CCNc1ccc(S(=O)(=O)NC(=O)c2ccc(N3CCN(CC4=C(c5ccc(Cl)cc5)CC(C)(C)CC4)CC3)cc2Oc2cnc3[nH]ccc3c2)cc1[N+](=O)[O-]` [Example 12, 4-(4-{[2-(4-chlorophenyl)-4,4-dimethylcyclohex-1-en-1-yl]methyl}piperazin-1-yl)-N-({4-[(3-hydroxy-3-methylbutyl)amino]-3-nitrophenyl}sulfonyl)-2-(1H-pyrrolo[2,3-b]pyridin-5-yloxy)benzamide] are < 0.1 nM, 30 nM, 27% and 41%.
The matching figures for `CC1(C)CCC(CN2CCN(c3ccc(C(=O)NS(=O)(=O)c4ccc(NC[C@@H]5[C@H]6COC[C@@H]56)c([N+](=O)[O-])c4)c(Oc4cnc5[nH]ccc5c4)c3)CC2)=C(c2ccc(Cl)cc2)C1` [Example 14, 4-(4-{[2-(4-chlorophenyl)-4,4-dimethylcyclohex-1-en-1-yl]methyl}piperazin-1-yl)-N-[(3-nitro-4-{[(1R,5S,6S)-3-oxabicyclo[3.1.0]hex-6-ylmethyl]amino}phenyl)sulfonyl]-2-(1H-pyrrolo[2,3-b]pyridin-5-yloxy)benzamide]: < 0.1 nM, 10 nM, 54% and 61%.
With `CC(=O)N1CCC(CNc2ccc(S(=O)(=O)NC(=O)c3ccc(N4CCN(CC5=C(c6ccc(Cl)cc6)CC(C)(C)CC5)CC4)cc3Oc3cnc4[nH]ccc4c3)cc2[N+](=O)[O-])CC1` [Example 47, N-[(4-{[(1-acetylpiperidin-4-yl)methyl]amino}-3-nitrophenyl)sulfonyl]-4-(4-{[2-(4-chlorophenyl)-4,4-dimethylcyclohex-1-en-1-yl]methyl}piperazin-1-yl)-2-(1H-pyrrolo[2,3-b]pyridin-5-yloxy)benzamide], the Ki at GST-Bcl-2 was < 0.1 nM. Besides, in the assay with RS4;11 cells, a half-maximal response (EC50) required 14 nM.
The matching figures for `CC1(C)CCC(CN2CCN(c3ccc(C(=O)NS(=O)(=O)c4ccc(NCC5COCCOC5)c([N+](=O)[O-])c4)c(Oc4cnc5[nH]ccc5c4)c3)CC2)=C(c2ccc(Cl)cc2)C1` [Example 51, 4-(4-{[2-(4-chlorophenyl)-4,4-dimethylcyclohex-1-en-1-yl]methyl}piperazin-1-yl)-N-({4-[(1,4-dioxepan-6-ylmethyl)amino]-3-nitrophenyl}sulfonyl)-2-(1H-pyrrolo[2,3-b]pyridin-5-yloxy)benzamide]: < 0.1 nM and 39 nM.
At GST-Bcl-2, `CC1(C)CCC(CN2CCN(c3ccc(C(=O)NS(=O)(=O)c4ccc(NCC5CCOCC5)c([N+](=O)[O-])c4)c(Oc4cnc5[nH]ccc5c4)c3)CC2)=C(c2ccc(Cl)c(Cl)c2)C1` [Example 53, 4-(4-{[2-(3,4-dichlorophenyl)-4,4-dimethylcyclohex-1-en-1-yl]methyl}piperazin-1-yl)-N-({3-nitro-4-[(tetrahydro-2H-pyran-4-ylmethyl)amino]phenyl}sulfonyl)-2-(1H-pyrrolo[2,3-b]pyridin-5-yloxy)benzamide] had a Ki of 0.2 nM. The EC50 in the assay with RS4;11 cells is 46 nM.
